Source: patent US20220313626A1, “SMALL MOLECULE INHIBITORS FOR TREATING CANCER IN A SUBJECT HAVING TUMORS WITH HIGH INTERSTITIAL PRESSURE” (GUANGZHOU MAXINOVEL PHARMACEUTICALS CO., LTD., priority 2019, published 2022)

Tested on: MC-38-hPD-L1 tumor cells
Test: Anti-tumor efficacy in MC-38-hPD-L1 models
Type: in vivo
Settings: for TGI / Tumor Volume: MC-38-hPD-L1, C57BL/6-hPD-1 mice, BID, 19 days
Method: Materials required for the experiment: Antibody: PD-L1 antibody Durvalumab, Product specifications: 120 mg/2.4 mL(50 mg/mL), Lot No.: 041E17C, Manufacture: AstraZeneca, purchased from Hongkong Mingchuang Medical Limited, storage at 2-8° C. Experimental animal: 120 C57BL/6-hPD-1 mice, female, 6˜8 weeks old, 18˜21 g, purchased from Jiangsu Gem Pharmatech Co. Ltd. Formulation material: castor oil (Cremophor RH40), CAS No.: 61788-85-0, Lot No.: 29761847G0, purchased from Shanghai Xietai Chemical Co. Ltd.; β-cyclodextrin (SBE-β-CD), CAS No.: 128446-35-5, Lot No.: R1804474, purchased from Shanghai Shaoyuan Chemical Co. Ltd.; DMEM culture medium, CAS No.: 11995-065, Lot No.: 2025378, purchased from Gibco Co. Ltd.; PBS, Art. No.: SH30256.01, Lot No.: AB10141338, purchased from HyClone Co. Ltd.; Fetal bovine serum: CAS No.: 10099-141, Lot No.: 1966174C, purchased from Gibco Co. Ltd.; hygromycinB: CAS No.: 10687010, Lot No.: HY069-L12 purchased from Invitrogen.
Cell culture: The MC-38 tumor cells (NCI) were maintained in vitro as a monolayer culture in DMEM medium supplemented with 10% heat inactivated fetal bovine serum, 100 μg/mL hygromycinB at 37° C. in an atmosphere of 5% CO2 in air. The tumor cells were routinely subcultured three times weekly by trypsin-EDTA treatment. The cells growing to a confluency around 70%-80% were harvested and counted for tumor inoculation.
Tumor cell inoculation and group administration: The 100 uL cell suspension containing 1×10^6 MC-38-hPD-L1 tumor cells (cells suspended in base DMEM medium) was inoculated into right dorsal subcutaneous area in mice. 6 days after inoculation, 60 tumor-bearing mice with transplanted tumors ranging from 31.49 mm^3 to 110.26 mm^3 were selected, stratified randomization was used to group and start the administration on the day of grouping.
Preparation of test substances: Preparation of formulation: 800 mL of sterile water was added into the volumetric flask with magnetic stirring to have a vortex. 100 g of castor oil (Cremophor RH40) was added with a spoon slowly into the vortex and the solution was kept stirring. 200 g of β-cyclodextrin (SBE-β-CD) was added while the solution was kept stirring until the solution was clear, and the total volume was set to 1000 mL, which contained 10% (w/v) Cremophor RH40+20% (w/v) an aqueous solution of SBE-β-CD.
Preparation of Compound Suspension: 150.92 mg compound was weighed and 12.5 mL 10% (w/v) Cremophor RH40+20% (w/v) SBE-β-CD aqueous solution were added. The suspension solution with a concentration of 12.0 mg/mL was obtained by vortex for 2 minutes and ultrasound for 30 minutes. 5.0 mL of the compound suspension solution with concentration of 12.0 mg/mL was pipetted and 5.0 mL aqueous formulation solution was added. The suspension solution with a concentration of 6.0 mg/mL was obtained by vortex for 1 minute and sonicated by ultrasound for 5 minutes. 2.0 mL of the compound suspension solution with concentration of 6.0 mg/mL was pipetted and […] was added. The suspension solution with a concentration of 3.0 mg/mL was obtained by vortex for 1 minute and sonicated by ultrasound for 5 minutes. Compound suspension solution was prepared once a day.
Preparation of hPD-L1 antibody: 0.12 mL PD-L1 antibody Durvalumab (50 mg/mL) original solution was pipetted and divided into […] in 5 mL sterile centrifugal tube, which were packed with each containing 6.0 mg. They were stored in refrigerator at 4° C. Before administration, a raw solution containing 0.12 mL and 50 mg/mL was taken, and 2.88 mL 0.9% sodium chloride solution was added to make the solution thoroughly mixed. 3 mL Duvalumab solution with the concentration 2 mg/mL was obtained.
Procedure: The mice in the vehicle group were weighed and recorded in the electronic balance according to their numbers. […]

SMILES: Cc1c(/C=C/c2cc(CN[C@@](C)(CO)C(=O)O)ccc2C(F)(F)F)cccc1-c1ccccc1 [Compound]
- tolerability (adverse reactions) (C57BL/6-hPD-1 mice, PO, BID up to 120 mg/kg): well tolerated
- TGI (30 mg/kg, PO): 24.95%
- Tumor Volume (30 mg/kg, PO): 459.82 ± 58.24 mm^3
- TGI (60 mg/kg, PO): 29.06%
- Tumor Volume (60 mg/kg, PO): 439.04 ± 51.23 mm^3
- TGI (120 mg/kg, PO): 51.21%
- Tumor Volume (120 mg/kg, PO): 325.23 ± 38.59 mm^3
- growth of subcutaneous MC-38-hPD-L1 tumors in mice (MC-38-hPD-L1 model, C57BL/6-hPD-1 mice): significantly inhibit the growth
